Experimental data: patent US11007274B2, “Compounds for medicinal applications” (Ausvir Therapeutics Pty LTD, priority 2015, dated 2021)
In brackets after ≈: the same amount, converted by molar mass. Several values for one entry are separate records, joined by “and”; a condition that tells them apart may be missing. Equal values may be shown once. Read-outs that look alike come from different tables or passages of the source.

Tests used:
CA/07/2009 = assay: microbe, parasite or virus in culture; type: cell-based
Duck/MN/1525/81 = type: cell-based; conditions: Table 7
Perth/16/2009 = assay: microbe, parasite or virus in culture; type: cell-based
Florida/4/2006 = assay: microbe, parasite or virus in culture; type: cell-based
[1] = system: Influenza A virus H3N2, Perth/16/2009; assay: microbe, parasite or virus in culture; type: cell-based; conditions: read-out: EC90
[2] = system: Influenza A virus H3N2, Perth/16/2009; assay: microbe, parasite or virus in culture; type: cell-based
[3] = system: Influenza A virus H1N1, California/07/2009; assay: microbe, parasite or virus in culture; type: cell-based; conditions: read-out: EC90
[4] = system: Influenza A virus H1N1, California/07/2009; assay: microbe, parasite or virus in culture; type: cell-based
[5] = system: Influenza A virus H5N1, Duck/MN/1525/81; assay: microbe, parasite or virus in culture; type: cell-based
[6] = system: Influenza B virus, B/Florida/4/2006; assay: microbe, parasite or virus in culture; type: cell-based; conditions: Table 19, […], B/Florida/4/2006, read-out: EC50
[7] = system: Influenza B virus, B/Florida/4/2006; assay: microbe, parasite or virus in culture; type: cell-based
A/Solomon Island/3/06 = assay: microbe, parasite or virus in culture; type: cell-based; conditions: unidentified influenza virus, read-out: EC50 A/Solomon Island/3/06
A/Townsville/74/2011 = assay: microbe, parasite or virus in culture; type: cell-based; conditions: unidentified influenza virus, read-out: EC50 A/Townsville/74/2011
A/Mississippi/03/01H274Y = type: cell-based, influenza virus
A/Perth/261/2009 = assay: microbe, parasite or virus in culture; type: cell-based; conditions: unidentified influenza virus, read-out: EC50 A/Perth/261/2009
A/Victoria/170/2012 = assay: microbe, parasite or virus in culture; type: cell-based; conditions: unidentified influenza virus, read-out: EC50 A/Victoria/170/2012
A/Sydney/5/97 = assay: microbe, parasite or virus in culture; type: cell-based; conditions: unidentified influenza virus, read-out: EC50 A/Sydney/5/97
A/Victoria/503/06 = assay: microbe, parasite or virus in culture; type: cell-based; conditions: unidentified influenza virus, read-out: EC50 A/Victoria/503/06
B/Townsville/2/2011 = assay: microbe, parasite or virus in culture; type: cell-based; conditions: unidentified influenza virus, read-out: EC50 B/Townsville/2/2011
A/PR/8 virus H1N1 = assay: Viral Plaque Reduction Assay (Table 23); type: cell-based, influenza virus; conditions: Table 23, plaque reduction, read-out: EC50
PR8 influenza virus = assay: Viral clearance rates in the lung and nasal turbinates, weight loss (Table 6); type: in vivo, mice
CA/07/2009 virus H1N1 = assay: Viral Plaque Reduction Assay (Table 22); type: cell-based; conditions: Influenza A virus, Table 22, plaque reduction, read-out: EC50

SMILES: CC(=O)N[C@H]1[C@H]([C@H](OC(=O)NCCCCCNC(=O)[C@@H]2C[C@H](C(=O)NCCCCCNC(=O)O[C@@H]([C@@H]3OC(C(=O)O)=C[C@H](N=C(N)N)[C@H]3NC(C)=O)[C@H](O)CO)C[C@H](C(=O)N[C@@H](CC(=O)O)C(=O)O)C2)[C@H](O)CO)OC(C(=O)O)=C[C@@H]1N=C(N)N [MD242, CHTCA(Zp)2-L-Asp]
- EC50 (CA/07/2009; Table 7): 6.58 nM
- EC50 CA/07/2009 (CA/07/2009; Table 7, MDCK cell line): 8 ng/mL (≈ 0.00658 µM)
- EC50 (Duck/MN/1525/81): 0.7 nM
- EC50 (Perth/16/2009; Table 7): 3.46 nM
- EC50 Perth/16/2009 (Perth/16/2009; Table 7): 4.2 ng/mL (≈ 0.00345 µM)
- EC50 (Florida/4/2006; Table 7): 0.58 nM
- EC50 Florida/4/2006 (Florida/4/2006; Table 7): 0.71 ng/mL (≈ 0.000584 µM)

SMILES: NC(=O)c1ncn([C@@H]2O[C@H](CO)[C@@H](O)[C@H]2O)n1 [Ribavirin, reference compound]
- EC90 [1]: 4.4 µg/mL (≈ 18 µM)
- EC50 [2]: 5 µg/mL (≈ 20.5 µM)
- EC90 [3]: 2.3 µg/mL (≈ 9.42 µM)
- EC50 [4]: 2.5 µg/mL (≈ 10.2 µM)
- EC90 [5]: 2.3 µg/mL (≈ 9.42 µM)
- EC50 [6]: 10 µg/mL (≈ 40.9 µM)
- EC50 [7]: 9.5 µg/mL (≈ 38.9 µM)
- CC50 (in vitro; CC50, Table 9, line Neutral Red (Cytopathic effect/Toxicity)): > 1000 µg/mL
- CC50 (in vitro; CC50, Table 10, line Neutral Red (Cytopathic effect/Toxicity)): > 1000 µg/mL
- CC50 (in vitro; CC50, Table 11, line Neutral Red (Cytopathic effect/Toxicity)): > 320 µg/mL
- CC50 (in vitro; CC50, Table 12, line Neutral Red (Cytopathic effect/Toxicity)): > 320 µg/mL
- CC50 (in vitro; CC50, Table 13, line Neutral Red (Cytopathic effect/Toxicity)): > 320 µg/mL
- CC50 (in vitro; CC50, Table 14, line Neutral Red (Cytopathic effect/Toxicity)): > 320 µg/mL
- CC50 (in vitro; CC50, Table 15, line Neutral Red (Cytopathic effect/Toxicity)): > 320 µg/mL
- CC50 (in vitro; CC50, Table 16, line Neutral Red (Cytopathic effect/Toxicity)): > 320 µg/mL
- CC50 (in vitro; CC50, Table 18, line Neutral Red (Cytopathic effect/Toxicity)): > 320 µg/mL
- CC50 (in vitro; CC50, Table 19, Neutral Red (Cytopathic effect/Toxicity) rows): > 320 µg/mL

SMILES: CC(=O)N[C@H]1[C@H]([C@H](OC(=O)NCCCCCCNC(=O)c2cc(C(=O)O)c(C(=O)NCCCCCCNC(=O)O[C@@H]([C@@H]3OC(C(=O)O)=C[C@H](N=C(N)N)[C@H]3NC(C)=O)[C@H](O)CO)cc2C(=O)O)[C@H](O)CO)OC(C(=O)O)=C[C@@H]1N=C(N)N [MD015, PK1 PYR(Z)2]
- EC50 (CA/07/2009; Table 7): 6 nM
- EC50 CA/07/2009 (CA/07/2009; Table 7, MDCK cell line): 7 ng/mL (≈ 0.006 µM)
- EC50 (Duck/MN/1525/81): 0.34 nM
- EC50 (Perth/16/2009; Table 7): 6.7 nM
- EC50 Perth/16/2009 (Perth/16/2009; Table 7): 7.8 ng/mL (≈ 0.00668 µM)
- EC50 (Florida/4/2006; Table 7): 2.1 nM
- EC50 Florida/4/2006 (Florida/4/2006; Table 7): 2.5 ng/mL (≈ 0.00214 µM)

SMILES: CC(=O)N[C@H]1[C@H]([C@H](OC(=O)NCCCCNC(=O)[C@@H]2C[C@H](C(=O)NCCCCNC(=O)O[C@@H]([C@@H]3OC(C(=O)O)=C[C@H](N=C(N)N)[C@H]3NC(C)=O)[C@H](O)CO)C[C@H](C(=O)N[C@@H](CC(=O)O)C(=O)O)C2)[C@H](O)CO)OC(C(=O)O)=C[C@@H]1N=C(N)N [MD206, CHTCA(Zb)2-L-Asp]
- EC50 (CA/07/2009; Table 7): 1.68 nM
- EC50 CA/07/2009 (CA/07/2009; Table 7, MDCK cell line): 2 ng/mL (≈ 0.00168 µM)
- EC50 (Duck/MN/1525/81): 0.59 nM
- EC50 (Perth/16/2009; Table 7): 6.1 nM
- EC50 Perth/16/2009 (Perth/16/2009; Table 7): 7.3 ng/mL (≈ 0.00614 µM)
- EC50 Florida/4/2006 (Florida/4/2006; Table 7): >10000 ng/mL
- EC50 (Florida/4/2006; Table 7, cells of the nM column printed in μM): > 8400 nM

SMILES: CC(=O)N[C@H]1[C@H]([C@H](OC(=O)NCCCCCCNC(=O)c2cc(C(=O)NCCCCCCNC(=O)O[C@@H]([C@@H]3OC(C(=O)O)=C[C@H](N=C(N)N)[C@H]3NC(C)=O)[C@H](O)CO)c(C(=O)O)cc2C(=O)O)[C@H](O)CO)OC(C(=O)O)=C[C@@H]1N=C(N)N [MD016, PK2 PYR(Z)2]
- EC50 (CA/07/2009): 7.7 nM
- EC50 CA/07/2009 (CA/07/2009): 9 ng/mL (≈ 0.00771 µM)
- EC50 (Duck/MN/1525/81): 0.51 nM
- EC50 (Perth/16/2009): 2.8 nM
- EC50 Perth/16/2009 (Perth/16/2009): 3.3 ng/mL (≈ 0.00283 µM)
- EC50 (Florida/4/2006): 7 nM
- EC50 Florida/4/2006 (Florida/4/2006): 8.2 ng/mL (≈ 0.00703 µM)

SMILES: CC(=O)N[C@H]1[C@H]([C@H](OC(=O)NCCCCNC(=O)c2cc(C(=O)NCCCCNC(=O)O[C@@H]([C@@H]3OC(C(=O)O)=C[C@H](N=C(N)N)[C@H]3NC(C)=O)[C@H](O)CO)c(C(=O)N[C@H](CC(=O)NCS(=O)(=O)O)C(=O)NCS(=O)(=O)O)cc2C(=O)N[C@H](CC(=O)NCS(=O)(=O)O)C(=O)NCS(=O)(=O)O)[C@H](O)CO)OC(C(=O)O)=C[C@@H]1N=C(N)N [MD219, PK2 PYR(Zb)2[(D-Asp)(NHCH2SO3H)2]2]
- EC50 (CA/07/2009): 2.92 nM
- EC50 CA/07/2009 (CA/07/2009): 5 ng/mL (≈ 0.00292 µM)
- EC50 (Duck/MN/1525/81): 0.29 nM
- EC50 (Perth/16/2009): > 5800 nM
- EC50 Perth/16/2009 (Perth/16/2009): >10000 ng/mL
- EC50 (Florida/4/2006): 0.99 nM
- EC50 Florida/4/2006 (Florida/4/2006): 1.7 ng/mL (≈ 0.000992 µM)

SMILES: CC(=O)N[C@H]1C([C@H](OC(=O)NCCCCCCCCCNC(=O)[C@@H]2CC(C(=O)NCCCCCCNC(=O)O[C@H](C(O)CO)C3OC(C(=O)O)=C[C@H](NC(=N)N)[C@H]3NC(C)=O)C[C@H](C(=O)N[C@H](CC(=O)NC(CS(=O)(=O)O)C(=O)O)C(=O)N[C@H](CC(=O)NC(CS(=O)(=O)O)C(=O)O)C(=O)N[C@H](CC(=O)NC(CS(=O)(=O)O)C(=O)O)C(=O)O)C2)C(O)CO)OC(C(=O)O)=C[C@@H]1NC(=N)N (stereo partly drawn) [MD348, CHTCA(Z0)2-[D-Asp(D-Cyst)-D-Asp(D-Cyst)-D-Asp(D-Cyst)]-OH]
- EC50 (A/Solomon Island/3/06): 0.016 nM
- EC50 (A/Townsville/74/2011): 0.06 nM
- EC50 (A/Mississippi/03/01H274Y): 0.27 nM
- EC50 (A/Perth/261/2009): 0.35 nM
- EC50 (A/Victoria/170/2012): 0.83 nM
- EC50 (A/Sydney/5/97): 1.26 nM
- EC50 (A/Victoria/503/06): 4.5 nM
- EC50 (B/Townsville/2/2011): 0.28 nM
- EC50 (A/PR/8 virus H1N1; Influenza A virus): 1.92 nM

SMILES: CC(=O)N[C@H]1[C@H]([C@H](O)[C@H](O)CO)OC(C(=O)O)=C[C@@H]1N=C(N)N [Zanamivir, reference compound]
- lung viral titre, Group mean titres (PR8 influenza virus; Day 1): 2.60 log10
- lung viral titre, Group mean titres (PR8 influenza virus; Day 3): 4.28 log10
- lung viral titre, Group mean titres (PR8 influenza virus; Day 5): 4.85 log10
- lung viral titre, Group mean titres (PR8 influenza virus; Day 7): 4.72 log10
- weight loss compared with PBS (PR8 influenza virus; days 3, 4 and 5, Bonferroni post-test p<0.001): significantly different from PBS
- lung viral titre, Individual titres (PR8 influenza virus; mouse, in vivo): 4.44 log10 and 4.66 log10 and 4.97 log10 (2×) and 4.19 log10 and 3.16 log10 and 4.84 log10 and 3.00 log10 and 5.77 log10 and 5.66 log10
- EC50 (A/Mississippi/03/01H274Y): > 66 nM
- EC50 (CA/07/2009 virus H1N1): 0.00197 µg/mL and 5.93 nM
- EC50 (A/PR/8 virus H1N1; Influenza A virus): 10200 nM

SMILES: CC(=O)N[C@H]1[C@H]([C@H](OC(=O)NCCCCCCCCNC(=O)CC(CC(=O)N[C@H](CS(=O)(=O)O)C(=O)N[C@H](CS(=O)(=O)O)C(=O)N[C@H](CS(=O)(=O)O)C(=O)O)C(=O)NCCCCCCCCNC(=O)O[C@@H]([C@@H]2OC(C(=O)O)=C[C@H](N=C(N)N)[C@H]2NC(C)=O)[C@H](O)CO)[C@H](O)CO)OC(C(=O)O)=C[C@@H]1N=C(N)N (stereo partly drawn) [MD343, PK2 TCA(Z0)2-[D-Cya]3-OH]
- EC50 (A/PR/8 virus H1N1): 1.27 nM
